Measurements as given in PubChem BioAssay (NCI).
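Cells were grown in 96-well plates and exposed to each compound for 48 hours at five concentrations; endpoints were interpolated linearly between bracketing concentrations, or set to the highest concentration if not reached. The concentration for 50% growth inhibition is given as GI50. TGI marks complete inhibition of growth.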

Legend:
Test in all cases: NCI-60 cell line screen, 48 h
COLO 205 colon = system: COLO 205 colon
MDA-MB-435 = system: MDA-MB-435
HCC-2998 colon = system: HCC-2998 colon
SNB-75 CNS = system: SNB-75 CNS
TK-10 renal = system: TK-10 renal
KM12 colon = system: KM12 colon
ACHN renal = system: ACHN renal
SF-539 CNS = system: SF-539 CNS
OVCAR-5 ovarian = system: OVCAR-5 ovarian
M14 melanoma = system: M14 melanoma
CCRF-CEM leukemia = system: CCRF-CEM leukemia
OVCAR-4 ovarian = system: OVCAR-4 ovarian
BT-549 breast = system: BT-549 breast
HOP-92 NSCLC = system: HOP-92 NSCLC
UACC-257 melanoma = system: UACC-257 melanoma
HL-60(TB) leukemia = system: HL-60(TB) leukemia
UO-31 renal = system: UO-31 renal
SN12C renal = system: SN12C renal
RPMI-8226 leukemia = system: RPMI-8226 leukemia
HCT-116 colon = system: HCT-116 colon
NCI-H226 lung = system: NCI-H226 lung
CAKI-1 renal = system: CAKI-1 renal
NCI/ADR-RES ovarian = system: NCI/ADR-RES ovarian
T-47D breast = system: T-47D breast
A549 NSCLC = system: A549 NSCLC
NCI-H522 lung = system: NCI-H522 lung
HT29 colon = system: HT29 colon
SK-MEL-5 melanoma = system: SK-MEL-5 melanoma
NCI-H23 lung = system: NCI-H23 lung
SNB-19 CNS = system: SNB-19 CNS
SF-268 CNS = system: SF-268 CNS
MALME-3M melanoma = system: MALME-3M melanoma
EKVX NSCLC = system: EKVX NSCLC
IGROV1 ovarian = system: IGROV1 ovarian
SF-295 CNS = system: SF-295 CNS
HCT-15 colon = system: HCT-15 colon
MCF7 breast = system: MCF7 breast
HOP-62 NSCLC = system: HOP-62 NSCLC
LOX IMVI melanoma = system: LOX IMVI melanoma
OVCAR-3 ovarian = system: OVCAR-3 ovarian
SW-620 colon = system: SW-620 colon
OVCAR-8 ovarian = system: OVCAR-8 ovarian
MOLT-4 leukemia = system: MOLT-4 leukemia
A498 renal = system: A498 renal
SK-OV-3 ovarian = system: SK-OV-3 ovarian
DU-145 prostate = system: DU-145 prostate
UACC-62 melanoma = system: UACC-62 melanoma
786-0 renal = system: 786-0 renal
NCI-H460 lung = system: NCI-H460 lung
PC-3 prostate = system: PC-3 prostate
U251 CNS = system: U251 CNS
SK-MEL-28 melanoma = system: SK-MEL-28 melanoma
HS 578T breast = system: HS 578T breast
RXF 393 renal = system: RXF 393 renal
MDA-MB-231 breast = system: MDA-MB-231 breast
SK-MEL-2 melanoma = system: SK-MEL-2 melanoma
SR leukemia = system: SR leukemia

[N-]=[N+]=NCCCn1c2c(c3ccccc3c1=O)C(=O)c1cc(Br)ccc1-2
GI50 (COLO 205 colon): > 100 µM | TGI (COLO 205 colon): > 100 µM | GI50 (MDA-MB-435): > 100 µM | TGI (MDA-MB-435): > 100 µM | GI50 (HCC-2998 colon): > 100 µM | TGI (HCC-2998 colon): > 100 µM | GI50 (SNB-75 CNS): 45.1 µM | TGI (SNB-75 CNS): > 100 µM | GI50 (TK-10 renal): > 100 µM | TGI (TK-10 renal): > 100 µM | GI50 (KM12 colon): > 100 µM | TGI (KM12 colon): > 100 µM | GI50 (ACHN renal): > 100 µM | TGI (ACHN renal): > 100 µM | GI50 (SF-539 CNS): > 100 µM | TGI (SF-539 CNS): > 100 µM | GI50 (OVCAR-5 ovarian): > 100 µM | TGI (OVCAR-5 ovarian): > 100 µM | GI50 (M14 melanoma): > 100 µM | TGI (M14 melanoma): > 100 µM | GI50 (CCRF-CEM leukemia): 50.8 µM | TGI (CCRF-CEM leukemia): > 100 µM | GI50 (OVCAR-4 ovarian): > 100 µM | TGI (OVCAR-4 ovarian): > 100 µM | GI50 (BT-549 breast): > 100 µM | TGI (BT-549 breast): > 100 µM | GI50 (HOP-92 NSCLC): 9.42 µM | TGI (HOP-92 NSCLC): 92.4 µM | GI50 (UACC-257 melanoma): > 100 µM | TGI (UACC-257 melanoma): > 100 µM | GI50 (HL-60(TB) leukemia): > 100 µM | TGI (HL-60(TB) leukemia): > 100 µM | GI50 (UO-31 renal): > 100 µM | TGI (UO-31 renal): > 100 µM | GI50 (SN12C renal): > 100 µM | TGI (SN12C renal): > 100 µM | GI50 (RPMI-8226 leukemia): > 100 µM | TGI (RPMI-8226 leukemia): > 100 µM | GI50 (HCT-116 colon): > 100 µM | TGI (HCT-116 colon): > 100 µM | GI50 (NCI-H226 lung): > 100 µM | TGI (NCI-H226 lung): > 100 µM | GI50 (CAKI-1 renal): > 100 µM | TGI (CAKI-1 renal): > 100 µM | GI50 (NCI/ADR-RES ovarian): > 100 µM | TGI (NCI/ADR-RES ovarian): > 100 µM | GI50 (T-47D breast): > 100 µM | TGI (T-47D breast): > 100 µM | GI50 (A549 NSCLC): > 100 µM | TGI (A549 NSCLC): > 100 µM | GI50 (NCI-H522 lung): > 100 µM | TGI (NCI-H522 lung): > 100 µM | GI50 (HT29 colon): > 100 µM | TGI (HT29 colon): > 100 µM | GI50 (SK-MEL-5 melanoma): > 100 µM | TGI (SK-MEL-5 melanoma): > 100 µM | GI50 (NCI-H23 lung): > 100 µM | TGI (NCI-H23 lung): > 100 µM | GI50 (SNB-19 CNS): > 100 µM | TGI (SNB-19 CNS): > 100 µM | GI50 (SF-268 CNS): > 100 µM | TGI (SF-268 CNS): > 100 µM | GI50 (MALME-3M melanoma): > 100 µM | TGI (MALME-3M melanoma): > 100 µM | GI50 (EKVX NSCLC): > 100 µM | TGI (EKVX NSCLC): > 100 µM | GI50 (IGROV1 ovarian): > 100 µM | TGI (IGROV1 ovarian): > 100 µM | GI50 (SF-295 CNS): > 100 µM | TGI (SF-295 CNS): > 100 µM | GI50 (HCT-15 colon): > 100 µM | TGI (HCT-15 colon): > 100 µM | GI50 (MCF7 breast): 39.8 µM | TGI (MCF7 breast): > 100 µM | GI50 (HOP-62 NSCLC): > 100 µM | TGI (HOP-62 NSCLC): > 100 µM | GI50 (LOX IMVI melanoma): > 100 µM | TGI (LOX IMVI melanoma): > 100 µM | GI50 (OVCAR-3 ovarian): > 100 µM | TGI (OVCAR-3 ovarian): > 100 µM | GI50 (SW-620 colon): > 100 µM | TGI (SW-620 colon): > 100 µM | GI50 (OVCAR-8 ovarian): > 100 µM | TGI (OVCAR-8 ovarian): > 100 µM | GI50 (MOLT-4 leukemia): 28.9 µM | TGI (MOLT-4 leukemia): > 100 µM | GI50 (A498 renal): > 100 µM | TGI (A498 renal): > 100 µM | GI50 (SK-OV-3 ovarian): > 100 µM | TGI (SK-OV-3 ovarian): > 100 µM | GI50 (DU-145 prostate): > 100 µM | TGI (DU-145 prostate): > 100 µM | GI50 (UACC-62 melanoma): > 100 µM | TGI (UACC-62 melanoma): > 100 µM | GI50 (786-0 renal): > 100 µM | TGI (786-0 renal): > 100 µM | GI50 (NCI-H460 lung): 46.8 µM | TGI (NCI-H460 lung): > 100 µM | GI50 (PC-3 prostate): > 100 µM | TGI (PC-3 prostate): > 100 µM | GI50 (U251 CNS): > 100 µM | TGI (U251 CNS): > 100 µM | GI50 (SK-MEL-28 melanoma): > 100 µM | TGI (SK-MEL-28 melanoma): > 100 µM | GI50 (HS 578T breast): > 100 µM | TGI (HS 578T breast): > 100 µM | GI50 (RXF 393 renal): > 100 µM | TGI (RXF 393 renal): > 100 µM | GI50 (MDA-MB-231 breast): > 100 µM | TGI (MDA-MB-231 breast): > 100 µM | GI50 (SK-MEL-2 melanoma): > 100 µM | TGI (SK-MEL-2 melanoma): > 100 µM | GI50 (SR leukemia): 9.82 µM | TGI (SR leukemia): 51.7 µM
